Assay results published in article PMC6214715 (Journal of veterinary pharmacology and therapeutics, 2018).

How the values were obtained:
[1] = test system: cat liver microsomes; assay type: in vitro ADME; conditions: pooled cat liver microsomes (n = 16); (+)-M1 at 10 μM, (+)-M2 at 0.5 μM
[2] = test system: CYP3A26; assay type: in vitro ADME, canine; conditions: recombinant CYP3A26; (+)-M1 10 μM, (+)-M2 0.5 μM
[3] = target: T1, CYP1A2 (Canis lupus familiaris, UniProt P56592); assay type: in vitro ADME, canine; conditions: recombinant CYP1A2; (+)-M1 10 μM, (+)-M2 0.5 μM
T1 sequence (P56592 1-512): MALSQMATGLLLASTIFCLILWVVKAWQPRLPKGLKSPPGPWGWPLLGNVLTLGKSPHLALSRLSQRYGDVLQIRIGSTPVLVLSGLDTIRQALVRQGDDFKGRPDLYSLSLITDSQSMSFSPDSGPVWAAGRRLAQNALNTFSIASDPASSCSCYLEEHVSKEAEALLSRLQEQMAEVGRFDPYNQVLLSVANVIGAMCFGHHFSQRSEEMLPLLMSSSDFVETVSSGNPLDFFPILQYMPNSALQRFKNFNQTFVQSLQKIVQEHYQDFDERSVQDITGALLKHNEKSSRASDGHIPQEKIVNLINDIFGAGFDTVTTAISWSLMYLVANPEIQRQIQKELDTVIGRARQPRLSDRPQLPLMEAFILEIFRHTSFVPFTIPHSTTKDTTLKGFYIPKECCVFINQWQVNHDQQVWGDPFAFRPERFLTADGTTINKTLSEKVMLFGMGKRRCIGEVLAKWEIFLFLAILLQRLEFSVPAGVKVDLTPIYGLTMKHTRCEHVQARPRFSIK

[4] = target: T2, CYP2D15 (Canis lupus familiaris, UniProt Q29473); assay type: in vitro ADME, canine; conditions: recombinant CYP2D15; (+)-M1 10 μM, (+)-M2 0.5 μM
T2 sequence (Q29473 1-500): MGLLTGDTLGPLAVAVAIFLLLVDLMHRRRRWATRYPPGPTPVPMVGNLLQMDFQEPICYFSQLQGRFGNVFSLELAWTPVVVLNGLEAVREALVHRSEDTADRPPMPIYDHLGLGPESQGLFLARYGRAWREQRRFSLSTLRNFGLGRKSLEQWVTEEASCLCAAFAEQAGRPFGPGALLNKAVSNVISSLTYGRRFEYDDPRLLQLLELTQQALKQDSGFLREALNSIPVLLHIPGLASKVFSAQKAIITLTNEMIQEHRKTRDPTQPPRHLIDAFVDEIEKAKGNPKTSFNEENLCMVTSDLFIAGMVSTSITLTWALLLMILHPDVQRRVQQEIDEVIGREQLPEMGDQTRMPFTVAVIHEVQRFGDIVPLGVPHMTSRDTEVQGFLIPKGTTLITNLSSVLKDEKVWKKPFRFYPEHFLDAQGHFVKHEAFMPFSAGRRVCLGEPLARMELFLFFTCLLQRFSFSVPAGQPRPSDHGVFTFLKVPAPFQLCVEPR

## CN(C)CC1CCCCC1(O)c1cccc(O)c1.Cl (single isomer, unassigned; (+)) [(+)-M1, (+)-O-desmethyltramadol hydrochloride]
[1]
  (+)-M5 formation rate (in words): low activities
[2]
  formation rate of (+)-M5 (in words): only very low activities
[3]
  formation rate of (+)-M5 (in words): only very low activities
[4]
  formation rate of (+)-M5 (in words): only very low activities
